How the values were obtained:
MOLT-4 = assay: Growth of human MOLT4 cells at 10 uM incubated for 48 hrs by sulforhodamine B assay relative to control; settings: MOLT-4, 48 h
Malme-3M = assay: Growth of human MALME-3M cells at 10 uM incubated for 48 hrs by sulforhodamine B assay relative to control
UO-31 = assay: Growth inhibition of human UO31 cells at 10 uM incubated for 48 hrs by sulforhodamine B assay relative to control; type: functional; settings: UO-31, 48 h, values are per cent of control
SF-295 = assay: Growth of human SF295 cells at 10 uM incubated for 48 hrs by sulforhodamine B assay relative to control; settings: SF-295, 48 h
NCI-H322M = assay: Growth inhibition of human NCI-H322M cells at 10 uM incubated for 48 hrs by sulforhodamine B assay relative to control; type: functional; settings: values are per cent of control
BT-549 = assay: Growth inhibition of human BT549 cells at 10 uM incubated for 48 hrs by sulforhodamine B assay relative to control; type: functional; settings: BT-549, 48 h, values are per cent of control
A549 = assay: Growth of human A549/ATCC cells at 10 uM incubated for 48 hrs by sulforhodamine B assay relative to control; settings: A549, 48 h
NCI/ADR-RES = assay: Growth inhibition of human NCI/ADR-RES cells at 10 uM incubated for 48 hrs by sulforhodamine B assay relative to control; type: functional; settings: values are per cent of control
OVCAR-4 = assay: Growth of human OVCAR4 cells at 10 uM incubated for 48 hrs by sulforhodamine B assay relative to control; settings: OVCAR-4, 48 h
HCT-15 = assay: Growth of human HCT15 cells at 10 uM incubated for 48 hrs by sulforhodamine B assay relative to control; settings: HCT-15, 48 h
KM12 = assay: Growth of human KM12 cells at 10 uM incubated for 48 hrs by sulforhodamine B assay relative to control; settings: KM12, 48 h
SF-539 = assay: Growth of human SF539 cells at 10 uM incubated for 48 hrs by sulforhodamine B assay relative to control; settings: SF-539, 48 h
HOP-92 = assay: Growth inhibition of human HOP92 cells at 10 uM incubated for 48 hrs by sulforhodamine B assay relative to control; type: functional; settings: HOP-92, 48 h, values are per cent of control
HCT-116 = assay: Growth of human HCT116 cells at 10 uM incubated for 48 hrs by sulforhodamine B assay relative to control; settings: HCT-116, 48 h
HT-29 = assay: Growth of human HT-29 cells at 10 uM incubated for 48 hrs by sulforhodamine B assay relative to control; settings: HT-29, 48 h
HL-60(TB) = assay: Growth inhibition of human HL-60(TB) cells at 10 uM incubated for 48 hrs by sulforhodamine B assay relative to control; type: functional; settings: HL-60, 48 h, values are per cent of control
RXF 393 = assay: Growth inhibition of human RXF393 cells at 10 uM incubated for 48 hrs by sulforhodamine B assay relative to control; type: functional; settings: RXF 393, 48 h, values are per cent of control
COLO 205 = assay: Growth of human COLO205 cells at 10 uM incubated for 48 hrs by sulforhodamine B assay relative to control; settings: COLO 205, 48 h
LOX IMVI = assay: Growth of human LOXIMVI cells at 10 uM incubated for 48 hrs by sulforhodamine B assay relative to control
SK-OV-3 = assay: Growth inhibition of human SKOV3 cells at 10 uM incubated for 48 hrs by sulforhodamine B assay relative to control; type: functional; settings: SK-OV-3, 48 h, values are per cent of control
ACHN = assay: Growth inhibition of human ACHN cells at 10 uM incubated for 48 hrs by sulforhodamine B assay relative to control; type: functional; settings: values are per cent of control
CCRF-CEM = assay: Growth of human CCRF-CEM cells at 10 uM incubated for 48 hrs by sulforhodamine B assay relative to control
SK-MEL-2 = assay: Growth of human SK-MEL-2 cells at 10 uM incubated for 48 hrs by sulforhodamine B assay relative to control; settings: SK-MEL-2, 48 h
NCI-H460 = assay: Growth inhibition of human NCI-H460 cells at 10 uM incubated for 48 hrs by sulforhodamine B assay relative to control; type: functional; settings: NCI-H460, 48 h, values are per cent of control
U-251 = assay: Growth of human U251 cells at 10 uM incubated for 48 hrs by sulforhodamine B assay relative to control; settings: U-251, 48 h
MDA-MB-231 = assay: Growth inhibition of human MDA-MB-231 cells at 10 uM incubated for 48 hrs by sulforhodamine B assay relative to control; type: functional; settings: MDA-MB-231, 48 h, values are per cent of control
M14 = assay: Growth of human M14 cells at 10 uM incubated for 48 hrs by sulforhodamine B assay relative to control; settings: M14, 48 h

SMILES	growth, % of control at 10 µM (MOLT-4)	growth, % of control at 10 µM (Malme-3M)	growth, % of control at 10 µM (UO-31)	growth, % of control at 10 µM (SF-295)	growth, % of control at 10 µM (NCI-H322M)	growth, % of control at 10 µM (BT-549)	growth, % of control at 10 µM (A549)	growth, % of control at 10 µM (NCI/ADR-RES)	growth, % of control at 10 µM (OVCAR-4)	growth, % of control at 10 µM (HCT-15)	growth, % of control at 10 µM (KM12)	growth, % of control at 10 µM (SF-539)	growth, % of control at 10 µM (HOP-92)	growth, % of control at 10 µM (HCT-116)	growth, % of control at 10 µM (HT-29)	growth, % of control at 10 µM (HL-60(TB))	growth, % of control at 10 µM (RXF 393)	growth, % of control at 10 µM (COLO 205)	growth, % of control at 10 µM (LOX IMVI)	growth, % of control at 10 µM (SK-OV-3)	other results
CCS/C(Nc1ccccc1)=C(\C#N)C(=O)Nc1ccc(C)cc1	56.6%	101%	75.3%	95.7%	96.6%	103%	84.5%	98.4%	101%	94.8%	96.6%	98.2%	62.3%	90%	89%	45.9%	103%	117%	98.8%	101%	growth, % of control at 10 µM (ACHN): 96.8%; growth, % of control at 10 µM (CCRF-CEM): 85.8%; growth, % of control at 10 µM (SK-MEL-2): 85.3%; growth, % of control at 10 µM (NCI-H460): 98.8%; growth, % of control at 10 µM (U-251): 96.6%; growth, % of control at 10 µM (MDA-MB-231): 98.9%; growth, % of control at 10 µM (M14): 112%
CCS/C(Nc1ccccc1)=C(\C#N)C(=O)Nc1ccccc1	69.2%	117%	76%	91.3%	97.2%	103%	86.2%	91.1%	102%	93.7%	90%	104%	53%	92.7%	88.2%	58.1%	101%	113%	97.9%	88.2%	growth, % of control at 10 µM (ACHN): 102%; growth, % of control at 10 µM (CCRF-CEM): 82.4%; growth, % of control at 10 µM (SK-MEL-2): 87.6%; growth, % of control at 10 µM (NCI-H460): 99.5%; growth, % of control at 10 µM (U-251): 92.6%; growth, % of control at 10 µM (MDA-MB-231): 94.2%; growth, % of control at 10 µM (M14): 128%
CCS/C(Nc1ccccc1)=C(\C#N)C(=O)N/N=C\c1ccco1	76.3%	95.9%	86.8%	101%	101%	109%	86.7%	101%	106%	106%	104%	98.7%	94.7%	95.5%	94.7%	84.2%	104%	103%	109%	99.3%	growth, % of control at 10 µM (ACHN): 105%; growth, % of control at 10 µM (CCRF-CEM): 91.2%; growth, % of control at 10 µM (SK-MEL-2): 94.3%; growth, % of control at 10 µM (NCI-H460): 110%; growth, % of control at 10 µM (U-251): 94%; growth, % of control at 10 µM (MDA-MB-231): 96.2%; growth, % of control at 10 µM (M14): 99.2%
CC(C)(C)S/C(Nc1ccccc1)=C(\C#N)C(=O)Nc1ccccc1	69.7%	97.3%	86.1%	94.4%	101%	99.4%	88.4%	100%	100%	101%	114%	100%	91.4%	95.2%	94.6%	82.3%	101%	102%	98.8%	105%	growth, % of control at 10 µM (ACHN): 103%; growth, % of control at 10 µM (CCRF-CEM): 86.4%; growth, % of control at 10 µM (SK-MEL-2): 94%; growth, % of control at 10 µM (NCI-H460): 103%; growth, % of control at 10 µM (U-251): 92%; growth, % of control at 10 µM (MDA-MB-231): 98.5%; growth, % of control at 10 µM (M14): 100%
CC(C)(C)S/C(Nc1ccccc1)=C(\C#N)C(=O)N/N=C\c1ccc(Cl)cc1Cl	86.2%	94.2%	82.7%	97.9%	99.8%	97%	98.1%	96%	112%	102%	102%	98%	94.1%	88%	92.6%	89.2%	103%	112%	101%	101%	growth, % of control at 10 µM (ACHN): 105%; growth, % of control at 10 µM (CCRF-CEM): 88.3%; growth, % of control at 10 µM (SK-MEL-2): 91.6%; growth, % of control at 10 µM (NCI-H460): 101%; growth, % of control at 10 µM (U-251): 98.6%; growth, % of control at 10 µM (MDA-MB-231): 96.8%; growth, % of control at 10 µM (M14): 98.5%
CC(C)(C)S/C(Nc1ccccc1)=C(\C#N)C(=O)N/N=C\c1ccco1	88.6%	104%	90.2%	102%	102%	103%	79.6%	100%	104%	99.2%	104%	94.3%	82.3%	82.9%	87.2%	63.6%	105%	102%	99.6%	89.3%	growth, % of control at 10 µM (ACHN): 98%; growth, % of control at 10 µM (CCRF-CEM): 92.2%; growth, % of control at 10 µM (SK-MEL-2): 103%; growth, % of control at 10 µM (NCI-H460): 102%; growth, % of control at 10 µM (U-251): 94.7%; growth, % of control at 10 µM (MDA-MB-231): 99.6%; growth, % of control at 10 µM (M14): 105%
